Reference: patent publication US11142547B2, “Polypeptide and use thereof” (Genoimmune Therapeutics Co., Ltd., priority 2016, dated 2021)

Assays:
Assay type in all cases: in vivo, NOD/SCID mice
[1] = test system: human non-small cell lung adenocarcinoma cell line H2087—polypeptide FLLGNLFFV (SEQ ID NO:1); assay: Polypeptide + Freund's adjuvant vaccine in subcutaneous tumor-modeled mice; conditions: adjuvant+polypeptide 100 μg s.c., vs adjuvant alone and adjuvant+wild-type polypeptide groups; FIG. 5
Procedure: (§1) The human non-small cell lung adenocarcinoma cell line NCI-H2087 which is HLA-A*0201 positive was purchased from ATCC (Cat. No.: CRL-5922). The cell line NCI-H2087 was incubated in the Dulbecco's Modified Eagle Medium (DMEM) containing 10% fetal calf serum, 100 U/mL penicillin and 100 U/mL streptomycin in an incubator under 37° C. and 5% CO2, and subsequently infected with the lentivirus expressing the mutant polypeptide (depicted in […], SEQ ID NO:1) as prepared in 6.1. Afterwards, the infected cells were incubated with the Puromycin antibiotic for a certain duration to screen out those viable infected cells, i.e., obtaining the human non-small cell lung adenocarcinoma cell line H2087 which expresses the mutant polypeptide (depicted in […], SEQ ID NO:1) and named as the human non-small cell lung adenocarcinoma cell line H2087—polypeptide […] (SEQ ID NO:1).
(§2) After isolated with Ficoll solution from 600 to 900 ml anticoagulant peripheral blood from a healthy volunteer, the collected PBMCs in a concentration of 2×10^7 cells/0.5 ml were intraperitoneally injected into each of 300 NOD SCID mice without immune leakage, so as to reconstruct a human immune system in the NOD SCID mice, with the mice after 4 weeks selected for subsequent inoculation of the human non-small cell lung adenocarcinoma cell line H2087—polypeptide […] obtained in 6.2.
(§3) The human non-small cell lung adenocarcinoma cell line H2087—polypeptide […] (SEQ ID NO:1) obtained in 6.2 was incubated in DMEM medium containing 10% fetal calf serum, 100 U/mL penicillin and 100 U/mL streptomycin in an incubator under 37° C. and 5% CO2, and then the cells were centrifuged at 3000 rpm for collection. The collected cells were washed with sterile physiological saline three times, and then diluted appropriately. To 40 μl tumor cell suspension, 10 μl 0.4% […] was added for staining, subsequently the tumor cell suspension in a concentration of 1×10^8 cells/ml was prepared after counting under microscope. 100 μl of the tumor cell suspension was inoculated into each of the NOD/SCID mice by subcutaneous injection at 4 weeks post immune reconstruction in 6.3, with daily observation of the presence/absence of infection at inoculation sites, the increase/decrease of tumor size (in the case of presence of a tumor), and measurement of the major axis (a) and the minor axis (b) of a tumor by a vernier caliper every 2 or 3 days (where the tumor size=a×b×b/2). After 7 days from inoculation, a tumor in a size of rice grain was touchable at the inoculation site. After that, the subcutaneous tumor-modeled NOD/SCID mice (modeled with H2087—polypeptide […] (SEQ ID NO:1)) were treated with a polypeptide+complete Freund's adjuvant vaccine, a polypeptide+DCs vaccine, a lentivirus-infected DCs vaccine and a DC-CTL vaccine respectively, with the tumor size and mouse survival rate observed and recorded every 2 days.
The subcutaneous tumor-modeled NOD/SCID mice obtained in 6.4 of the example 6 were divided into 6 groups randomly as below, with 6 mice per group:
Except for the adjuvant alone group, mice in other 5 groups received first immunization, by subcutaneous injection at two sites of the mouse back with 100 μg wild-type polypeptide (depicted in […], SEQ ID NO:5), 100 μg mutant polypeptide (depicted in […], SEQ ID NO:1), 100 μg mutant polypeptide's variant (depicted in […], SEQ ID NO:2), 100 μg mutant polypeptide's variant (depicted in […], SEQ ID NO:3), and 100 μg mutant polypeptide's variant (depicted in […], SEQ ID NO:4), respectively, each of which was mixed with 150 μl Freund's complete adjuvant in PBS to a final volume of 300 μl. After 2 weeks, differently-immunized mice in 5 groups received respective same-dosage booster immunizations at 2 week interval for 4 times in total, with incomplete Freund's adjuvant for the latter three immunizations. […]

[2] = test system: human non-small cell lung adenocarcinoma cell line H2087—polypeptide FLLGNLFFV (SEQ ID NO:1); assay: DC polypeptide vaccine in subcutaneous tumor-modeled mice; conditions: DCs loaded with the polypeptide, intracutaneous, vs DCs loaded with wild-type polypeptide; FIG. 6
Procedure: as §1, §2, §3
Peripheral blood mononuclear cells (PBMCs) in 100 to 150 mL anticoagulant peripheral blood obtained from a healthy volunteer were isolated with Ficoll solution. The collected PBMCs suspended in the RPMI 1640 medium in a concentration of 2×10^6-3×10^6 cells/ml were incubated at 37° C. for 2 hours, obtaining adherent monocytes which can be induced into DCs, and non-adherent peripheral blood lymphocytes (PBLs) for use. Such the monocytes were induced into immature DCs in the presence of GM-CSF (1000 U/ml) and IL-4 (1000 U/ml), followed by inducing to mature DCs in the presence of IFN-γ (100 U/ml) and CD40L (10 ng/ml), as well as the subsequently added 10 μg/ml wild-type polypeptide (depicted in […], SEQ ID NO:5), 10 μg/ml mutant polypeptide (depicted in […], SEQ ID NO:1), 10 μg/ml mutant polypeptide's variant (depicted in […], SEQ ID NO:2), 10 μg/ml mutant polypeptide's variant (depicted in […], SEQ ID NO:3), and 10 μg/ml mutant polypeptide's variant (depicted in […], SEQ ID NO:4), respectively. […]

[3] = test system: human non-small cell lung adenocarcinoma cell line H2087—polypeptide FLLGNLFFV (SEQ ID NO:1); assay: Polypeptide-specific DC-CTL vaccine in subcutaneous tumor-modeled mice; conditions: CTLs stimulated by DCs loaded with the polypeptide, i.v. 1×10^8 cells/mouse, vs wild-type polypeptide group; FIG. 8
Procedure: as §1, §2, §3
The CD8^+ T cells sorted with CD8 magnetic beads from PBLs in the example 8 were firstly stimulated by incubating with the DCs loaded with the wild-type polypeptide (depicted in […], SEQ ID NO:5), the DCs loaded with the mutant polypeptide (depicted in […], SEQ ID NO:1), the DCs loaded with the mutant polypeptide's variant (depicted in […], SEQ ID NO:2), the DCs loaded with the mutant polypeptide's variant (depicted in […], SEQ ID NO:3), and the DCs loaded with the mutant polypeptide's variant (depicted in […], SEQ ID NO:4), respectively, in a ratio of 1:4 of DCs:CD8^+ T cell, in an incubator under 37° C. and 5% CO2 in the presence of 500 IU/ml IL-2 and 50 ng/ml IL-7, with the second and third stimulations at week 2 and week 3 using DCs loaded with corresponding polypeptides respectively. The number of T lymphocytes was counted at day 0, 7, 14 and 21 post incubation, for calculation of cell proliferation index (PI), where PI=cell number after proliferation/cell number seeded. […]

Row | Sequence | Mouse survival period [1] | Tumor growth [1] | Mouse survival period [2] | Tumor growth [2] | Mouse survival period [3] | Tumor growth [3]
1 | FLLGNLFFL | prolonging mouse survival period effectively | inhibiting tumor growth | prolonging the mouse survival period | mitigating tumor growth significantly | prolonging mouse survival period significantly | inhibiting tumor growth
2 | FLLGNLFFV | prolonging mouse survival period effectively | inhibiting tumor growth | prolonging the mouse survival period | mitigating tumor growth significantly | prolonging mouse survival period significantly | inhibiting tumor growth
3 | FMLGNLFFL | prolonging mouse survival period effectively | inhibiting tumor growth | prolonging the mouse survival period | mitigating tumor growth significantly | prolonging mouse survival period significantly | inhibiting tumor growth
4 | FMLGNLFFV | prolonging mouse survival period effectively | inhibiting tumor growth | prolonging the mouse survival period | mitigating tumor growth significantly | prolonging mouse survival period significantly | inhibiting tumor growth
